# Data from PubChem BioAssay AID588803 (The Scripps Research Institute Molecular Screening Center, 2011).
# Calls of active or inactive are those of the source. The rule behind the calls is not given here.
# What was measured:
# Assay in all cases: PME-1 and off-target engagement in cells – ABPP-SILAC, LC-MS/MS, mouse cells, selectivity assay for PME-1 inhibitor project, late-stage follow-up (AID 588803)
# Prcp = conditions: serine hydrolase ratios, hits give low values
# Pafah1b2 = conditions: serine hydrolase ratios, hits give low values
# [1] = biological target: Monoacylglycerol lipase ABHD6 (Mus musculus) (UniProt Q8R2Y0); conditions: serine hydrolase ratios, hits give low values
# Dpp8 = conditions: serine hydrolase ratios, hits give low values
# Lypla2 = conditions: serine hydrolase ratios, hits give low values
# Pme1 = conditions: serine hydrolase ratios, hits give low values
# Bat5 = conditions: serine hydrolase ratios, hits give low values
# Rbbp9 = conditions: serine hydrolase ratios, hits give low values
# Serhl = conditions: serine hydrolase ratios, hits give low values
# Pla2g6 = conditions: serine hydrolase ratios, hits give low values
# Dpp7 = conditions: serine hydrolase ratios, hits give low values
# Ppt2 = conditions: serine hydrolase ratios, hits give low values
# Nceh1 = conditions: serine hydrolase ratios, hits give low values
# Acot7 = conditions: serine hydrolase ratios, hits give low values
# Iah1 = conditions: serine hydrolase ratios, hits give low values
# Lyplal1 = conditions: serine hydrolase ratios, hits give low values
# Abhd12 = conditions: serine hydrolase ratios, hits give low values
# Ctsa = conditions: serine hydrolase ratios, hits give low values
# [2] = biological target: Prolyl endopeptidase (Mus musculus) (UniProt Q9QUR6); conditions: serine hydrolase ratios, Prep, hits give low values
# [3] = biological target: Acyl-protein thioesterase 1 (Mus musculus) (UniProt P97823); conditions: serine hydrolase ratios, Lypla1, hits give low values
# Pla2g15 = conditions: serine hydrolase ratios, hits give low values
# Pafah1b3 = conditions: serine hydrolase ratios, hits give low values
# Acot1 = conditions: serine hydrolase ratios, hits give low values
# Parl = conditions: serine hydrolase ratios, hits give low values
# Ddhd2 = conditions: serine hydrolase ratios, hits give low values
# [4] = biological target: Platelet-activating factor acetylhydrolase 2, cytoplasmic (Mus musculus) (UniProt Q8VDG7); conditions: serine hydrolase ratios, Pafah2, hits give low values
# Prepl = conditions: serine hydrolase ratios, hits give low values
# Ache = conditions: serine hydrolase ratios, hits give low values
# Acot2 = conditions: serine hydrolase ratios, hits give low values
# Abhd11 = conditions: serine hydrolase ratios, hits give low values
# Acot9 = conditions: serine hydrolase ratios, hits give low values
# [5] = biological target: Palmitoyl-protein thioesterase ABHD10, mitochondrial (Mus musculus) (UniProt Q6PE15); conditions: serine hydrolase ratios, hits give low values
# Dpp9 = conditions: serine hydrolase ratios, hits give low values
# Htra2 = conditions: serine hydrolase ratios, hits give low values
# Pnpla8 = conditions: serine hydrolase ratios, hits give low values
# Fam108b1 = conditions: serine hydrolase ratios, hits give low values
# Apeh = conditions: serine hydrolase ratios, hits give low values
# Faah = conditions: serine hydrolase ratios, hits give low values
# Pgap1 = conditions: serine hydrolase ratios, hits give low values
# Fasn = conditions: serine hydrolase ratios, hits give low values
# Chain of Acyl-protein thioesterase 1 (Mus musculus) (P97823 whole entry, looked up): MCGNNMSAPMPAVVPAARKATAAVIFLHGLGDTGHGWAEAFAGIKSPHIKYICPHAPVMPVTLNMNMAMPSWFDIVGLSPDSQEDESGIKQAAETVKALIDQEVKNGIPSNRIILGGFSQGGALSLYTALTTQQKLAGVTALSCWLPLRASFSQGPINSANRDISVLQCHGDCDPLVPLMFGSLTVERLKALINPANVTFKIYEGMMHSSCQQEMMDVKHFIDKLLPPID
# Chain of Platelet-activating factor acetylhydrolase 2, cytoplasmic (Mus musculus) (Q8VDG7 whole entry, looked up): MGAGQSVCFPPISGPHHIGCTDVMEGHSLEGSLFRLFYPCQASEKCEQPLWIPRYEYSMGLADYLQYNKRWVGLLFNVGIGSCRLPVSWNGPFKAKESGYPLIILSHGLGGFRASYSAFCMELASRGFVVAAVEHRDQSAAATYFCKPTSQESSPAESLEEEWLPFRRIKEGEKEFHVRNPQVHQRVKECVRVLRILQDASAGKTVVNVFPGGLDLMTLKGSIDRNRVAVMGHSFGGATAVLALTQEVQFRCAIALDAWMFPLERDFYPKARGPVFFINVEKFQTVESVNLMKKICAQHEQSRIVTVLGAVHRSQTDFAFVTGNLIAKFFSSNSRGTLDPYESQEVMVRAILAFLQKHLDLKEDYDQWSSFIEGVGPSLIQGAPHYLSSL
# Chain of Palmitoyl-protein thioesterase ABHD10, mitochondrial (Mus musculus) (Q6PE15 whole entry, looked up): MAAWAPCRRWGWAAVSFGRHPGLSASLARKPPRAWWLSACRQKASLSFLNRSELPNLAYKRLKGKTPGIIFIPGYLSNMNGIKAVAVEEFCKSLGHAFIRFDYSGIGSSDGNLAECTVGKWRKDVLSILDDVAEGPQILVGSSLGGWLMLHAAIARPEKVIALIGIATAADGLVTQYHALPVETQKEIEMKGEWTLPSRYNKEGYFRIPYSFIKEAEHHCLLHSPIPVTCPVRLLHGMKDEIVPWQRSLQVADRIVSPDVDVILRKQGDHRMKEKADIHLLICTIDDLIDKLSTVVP
# Chain of Prolyl endopeptidase (Mus musculus) (Q9QUR6 whole entry, looked up): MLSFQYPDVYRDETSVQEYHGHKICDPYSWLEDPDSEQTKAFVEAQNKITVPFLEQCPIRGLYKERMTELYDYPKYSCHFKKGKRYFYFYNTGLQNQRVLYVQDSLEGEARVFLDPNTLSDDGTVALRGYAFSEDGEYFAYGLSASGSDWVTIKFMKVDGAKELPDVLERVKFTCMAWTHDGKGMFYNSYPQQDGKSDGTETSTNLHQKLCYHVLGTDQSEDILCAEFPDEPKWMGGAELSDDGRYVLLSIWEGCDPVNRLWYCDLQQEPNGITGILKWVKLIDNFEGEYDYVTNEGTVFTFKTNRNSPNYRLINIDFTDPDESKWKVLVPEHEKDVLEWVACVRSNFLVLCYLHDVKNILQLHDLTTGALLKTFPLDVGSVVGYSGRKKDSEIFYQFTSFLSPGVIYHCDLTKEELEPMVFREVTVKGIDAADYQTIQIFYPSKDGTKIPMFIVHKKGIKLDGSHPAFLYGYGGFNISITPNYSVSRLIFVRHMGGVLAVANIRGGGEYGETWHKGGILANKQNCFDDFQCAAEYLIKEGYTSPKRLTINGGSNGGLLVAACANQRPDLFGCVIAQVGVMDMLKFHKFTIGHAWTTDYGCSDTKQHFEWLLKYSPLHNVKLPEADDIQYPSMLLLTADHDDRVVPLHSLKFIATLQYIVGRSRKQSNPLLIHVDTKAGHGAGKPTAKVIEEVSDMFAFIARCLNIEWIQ
# Chain of Monoacylglycerol lipase ABHD6 (Mus musculus) (Q8R2Y0 whole entry, looked up): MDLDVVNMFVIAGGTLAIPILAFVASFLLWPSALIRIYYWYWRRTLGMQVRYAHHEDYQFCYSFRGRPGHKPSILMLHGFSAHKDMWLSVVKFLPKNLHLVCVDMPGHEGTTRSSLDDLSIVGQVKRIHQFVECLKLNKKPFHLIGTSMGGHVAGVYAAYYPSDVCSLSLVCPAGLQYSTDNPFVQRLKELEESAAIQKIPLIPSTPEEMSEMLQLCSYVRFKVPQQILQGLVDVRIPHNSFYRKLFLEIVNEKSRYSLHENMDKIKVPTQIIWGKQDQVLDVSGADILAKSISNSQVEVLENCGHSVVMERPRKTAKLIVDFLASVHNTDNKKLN
smiles,measurement,setting,value
COC(=O)N1C(=O)[C@](c2ccccc2)(C2CCCC2)N1C(=O)OC,SILAC ratio (probe labeling remaining),Prcp,0.717 (inactive)
same,SILAC ratio (probe labeling remaining),Pafah1b2,0.887 (inactive)
same,SILAC ratio (probe labeling remaining),[1],0.98 (inactive)
same,SILAC ratio (probe labeling remaining),Dpp8,0.859 (inactive)
same,SILAC ratio (probe labeling remaining),Lypla2,0.927 (inactive)
same,SILAC ratio (probe labeling remaining),Pme1,0
same,SILAC ratio (probe labeling remaining),Bat5,1.06 (inactive)
same,SILAC ratio (probe labeling remaining),Rbbp9,1.06 (inactive)
same,SILAC ratio (probe labeling remaining),Serhl,1.12 (inactive)
same,SILAC ratio (probe labeling remaining),Pla2g6,0.796 (inactive)
same,SILAC ratio (probe labeling remaining),Dpp7,0.846 (inactive)
same,SILAC ratio (probe labeling remaining),Ppt2,0.812 (inactive)
same,SILAC ratio (probe labeling remaining),Nceh1,1.01 (inactive)
same,SILAC ratio (probe labeling remaining),Acot7,1.32 (inactive)
same,SILAC ratio (probe labeling remaining),Iah1,1 (inactive)
same,SILAC ratio (probe labeling remaining),Lyplal1,1.29 (inactive)
same,SILAC ratio (probe labeling remaining),Abhd12,1.13 (inactive)
same,SILAC ratio (probe labeling remaining),Ctsa,0.869 (inactive)
same,SILAC ratio (probe labeling remaining),[2],1.01 (inactive)
same,SILAC ratio (probe labeling remaining),[3],1 (inactive)
same,SILAC ratio (probe labeling remaining),Pla2g15,1.01 (inactive)
same,SILAC ratio (probe labeling remaining),Pafah1b3,0.962 (inactive)
same,SILAC ratio (probe labeling remaining),Acot1,0.914 (inactive)
same,SILAC ratio (probe labeling remaining),Parl,0.995 (inactive)
same,SILAC ratio (probe labeling remaining),Ddhd2,1.19 (inactive)
same,SILAC ratio (probe labeling remaining),[4],0.913 (inactive)
same,SILAC ratio (probe labeling remaining),Prepl,0.931 (inactive)
same,SILAC ratio (probe labeling remaining),Ache,0.689 (inactive)
same,SILAC ratio (probe labeling remaining),Acot2,0.873 (inactive)
same,SILAC ratio (probe labeling remaining),Abhd11,0.946 (inactive)
same,SILAC ratio (probe labeling remaining),Acot9,0.889 (inactive)
same,SILAC ratio (probe labeling remaining),[5],0.951 (inactive)
same,SILAC ratio (probe labeling remaining),Dpp9,0.937 (inactive)
same,SILAC ratio (probe labeling remaining),Htra2,1.07 (inactive)
same,SILAC ratio (probe labeling remaining),Pnpla8,1.09 (inactive)
same,SILAC ratio (probe labeling remaining),Fam108b1,1.2 (inactive)
same,SILAC ratio (probe labeling remaining),Apeh,0.821 (inactive)
same,SILAC ratio (probe labeling remaining),Faah,1.06 (inactive)
same,SILAC ratio (probe labeling remaining),Pgap1,1.1 (inactive)
same,SILAC ratio (probe labeling remaining),Fasn,0.971 (inactive)
